Source: ChEMBL document CHEMBL5321216, “Discovery of bipyridine amide derivatives targeting pRXRα-PLK1 interaction for anticancer therapy” (Eur J Med Chem, 2023)
Calls of active or inactive are those of the source. The calls are words filed in the database; no cut-off is given here.

Tests used:
MDA-MB-231 [1] = assay: Antiproliferative activity against human MDA-MB-231 cells assessed as inhibition of cell proliferation incubated for 72 hrs by MTT assay; type: functional, cell-based; conditions: MDA-MB-231, 72 h
A549 [2] = assay: Induction of apoptosis in human A549 cells assessed as dead cells at 62.5 nM incubated for 24 hrs by annexin V-FITC/PI staining based flow cytometry analysis (reference value: 0.75%); type: functional
[3] = target: T1, Retinoic acid receptor RXR-gamma (Homo sapiens) (UniProt P48443); assay: Antagonist activity at RXRgamma (unknown origin) transfected in human HeLa cells at 31.25 uM incubated for 24 hrs by dual luciferase reporter assay; type: cell-based
T1 sequence (whole entry): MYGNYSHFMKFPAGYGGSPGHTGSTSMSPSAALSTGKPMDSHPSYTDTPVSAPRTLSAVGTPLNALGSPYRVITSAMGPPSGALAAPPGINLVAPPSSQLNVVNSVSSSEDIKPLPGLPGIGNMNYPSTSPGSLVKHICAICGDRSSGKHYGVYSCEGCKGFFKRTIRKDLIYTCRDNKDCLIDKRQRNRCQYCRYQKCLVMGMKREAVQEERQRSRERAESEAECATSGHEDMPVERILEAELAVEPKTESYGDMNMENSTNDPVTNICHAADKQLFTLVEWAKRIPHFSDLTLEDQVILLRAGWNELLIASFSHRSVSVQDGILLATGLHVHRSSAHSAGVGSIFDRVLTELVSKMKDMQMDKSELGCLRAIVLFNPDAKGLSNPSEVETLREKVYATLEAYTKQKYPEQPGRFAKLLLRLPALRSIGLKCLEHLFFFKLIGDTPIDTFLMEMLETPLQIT

MDA-MB-231 [4] = assay: Induction of cell cycle arrest in human MDA-MB-231 cells assessed as accumulation of cells at G2 phase at 125 nM incubated for 12 hrs by flow cytometry analysis (reference value: 15.91%); type: functional
A549 [5] = assay: Induction of cell cycle arrest in human A549 cells assessed as accumulation of cells at S phase at 31.25 nM incubated for 12 hrs by flow cytometry analysis (reference value: 31.81%); type: functional
MDA-MB-231 [6] = assay: Induction of apoptosis in human MDA-MB-231 cells assessed as late apoptotic cells at 31.25 nM incubated for 24 hrs by annexin V-FITC/PI staining based flow cytometry analysis (reference value: 5.93%); type: functional
MDA-MB-231 [7] = assay: Induction of apoptosis in human MDA-MB-231 cells assessed as live cells at 125 nM incubated for 24 hrs by annexin V-FITC/PI staining based flow cytometry analysis (reference value: 91.3%); type: functional
MDA-MB-231 [8] = assay: Antitumor activity against human MDA-MB-231 cells xenografted in BALB/c nude mouse assessed as inhibition of tumor growth by measuring DNA damaging response at 12.5 to 25 mg/kg/day, ip administered for 15 days; type: functional, organism-based; conditions: dose 12.5-25 mg/kg/day, time 15.0 day
[9] = Toxicity in BALB/c mouse xenografted with human MDA-MB-231 cells assessed as kidney damage at 25 mg/kg/day, ip administered for 15 days by H and E staining based analysis; type: organism-based; conditions: in vivo, 360 h, time 15 day
MDA-MB-231 [10] = assay: Upregulation of phosphorylated RXRalpha protein level in human MDA-MB-231 cells at 125 to 500 nM measured after 24 hrs by Western blot analysis; type: functional, cell-based; conditions: dose 125-500 nM

With O=C(/C=C/c1ccccc1)Nc1cc(-c2ccnc(N3CCC(CO)CC3)c2)ccn1 the IC50 (MDA-MB-231 [1]) was 16 nM, the Activity (A549 [2]) was 2.76% and the Activity [3] was “inactive”. The Activity (MDA-MB-231 [4]) was 85.88%, the Activity (A549 [5]) was 32.4% and the Activity (MDA-MB-231 [6]) was 14.7%. For the same molecule, the Activity (MDA-MB-231 [7]) was 66.9%, the Activity (MDA-MB-231 [8]) was “Active” and the Activity [9] was “Non-Toxic”. The Activity (MDA-MB-231 [10]) was “Active”.
